Measurements taken from patent publication US7183255B2, “Method for stabilizing blood pressure in hemodialysis subjects” (Intradialytic Pharmaceuticals, priority 2003, dated 2007).

Key:
Type in all cases: in vivo, human
[1] = Plasma AVP (radioimmunoassay) during constant AVP infusion, control vs hemodialysis periods (Example 1); parameters: plasma concentration of AVP at 2 h: unit not given here; settings: for plasma concentration of AVP at 2 h: ESRD patients, n=4
Description: Healthy controls and patients with end-stage renal disease (e.g. defined as creatinine clearance of less than 10 ml/min) were studied. The studies were conducted on regularly scheduled hemodialysis days. The duration of hemodialysis remained the same as that prescribed prior to the study period. AVP or placebo (normal saline) was administered at a constant rate of 0.15, 0.3 or o.6 mU/kg/min through a venous line (controls) or through the venous limb of the dialysis circuit (hemodialysis patients). The patient's hemodialysis prescription remained unchanged except for the administration of AVP or placebo. Intradialytic hypotension was treated in the customary manner with the infusion of isotonic and hypertonic fluids.
Serum AVP levels were determined by a radioimmunoassay technique. Blood pressure was measured with a cuff-type sphygmomanometer at 20 minute intervals.
Plasma AVP is not dialyzed. To examine whether administration of exogenous AVP could prevent intradialytic hypotension, it was first determined whether the dialysis procedure removed the hormone from the blood. To determine this, AVP was administered at doses that had no effect in normal subjects and determined the plasma concentrations and pressure responses to AVP infusion in healthy control subjects and hemodialysis patients.
To rule out the possibility that the lack of a rise in plasma AVP during dialysis was due to the fact that the newly secreted hormone was being dialyzed as was being secreted, we measured plasma AVP during the infusion of exogenous AVP to ERDS patients during control conditions and during hemodialysis.

[2] = Plasma vasopressin during constant vasopressin infusion in normal subjects and ESRD patients (Example 3, FIG. 8); settings: normal subjects vs patients with ESRD
Description: (§1) Plasma vasopressin concentration. Vasopressin in plasma was determined as previously described (Landry, D. W., H. R. Levin, et al. (1997). Circulation 95(5): 1122–5).
(§2) Administration of vasopressin. In eight normal subjects and eight patients with ESRD off dialysis, 8-arginine vasopressin (vasopressin, American Pharmaceutical Partners, Schaumberg, Ill.) in normal saline was administered through an antecubital intravenous line. In eight patients with ESRD during hemodialysis, vasopressin was infused through the venous (blood return) limb of the dialysis circuit throughout the dialysis session at a rate of 0.15 or 0.3 mU·kg^−1·min^−1.
Effect of vasopressin administration on its plasma concentration in normal subjects and Patients with ESRD. Because the effect of renal failure on the clearance of plasma vasopressin has remained unresolved (Shade, R. E. and L. Share (1976). Endocrinology 99(5): 1199–206; Benmansour, M., M. Rainfray, et al. (1982). Eur J Clin Invest 12(6): 475–80; Argent, N. B., R. Wilkinson, et al. (1992). Clin Sci (Lond) 83(5): 583–7), we administered a constant infusion of hormone to normal subjects and to patients with ESRD and measured plasma levels.

[3] = Effect of hemodialysis on plasma vasopressin during constant vasopressin infusion (Example 3, Table 1); settings: for level at 1 h / level at 2 h / level at 0 h: human, plasma, iv, mean±SE; for level at 1 h: 1 h Dialysis; for level at 2 h: 2 h Dialysis; for level at 0 h: Start Dialysis
Description: All patients were studied at regularly scheduled dialysis sessions. Patients underwent conventional hemodialysis with hollow fiber high flux polysulfone dialyzers on volumetric dialysis machines (Cobe Centrysystem 3, Gambro Renal Care Products, Inc., Lakewood, Colo.). Dialysis times were 3.5–4.5 hours. Blood flow was 300–400 mL/min and dialysate was delivered at 600 mL/min. The dialysis bath contained potassium, 2 mEq/L; calcium, 2.5 mEq/L; magnesium, 0.75 mEq/L; and bicarbonate, 40 mEq/L. In those patients who were prescribed dialysate sodium modeling and/or reduced dialysate temperature (35–37° C.) prior to the study, the parameters of these interventions were held constant throughout the study. Ultrafiltration was performed at a constant rate based on the target weight loss for that dialysis session. Oscillometric blood pressure and heart rate measurements were taken at 15–30 minute intervals.
as §1, §2
Effect of hemodialysis on plasma vasopressin concentration during constant infusion of hormone. To determine whether hemodialysis removes vasopressin from plasma (Shimamoto, K., T. Ando, et al. (1977). J Clin Endocrinol Metab 45(4): 818–20; Rosansky, S. J., R. Rhinehart, et al. (1991). Clin Nephrol 35(4): 158–64), we examined the effect of the procedure on the steady state plasma concentration of hormone during constant infusion. Vasopressin was infused for >1 hour to obtain a stable plasma concentration, at which time hemodialysis was initiated.

[4] = 0.15 mU/kg · min^−1, infusion 0.15 mU · kg^−1 · min^−1
[5] = 0.3 mU/kg · min^−1, infusion 0.3 mU · kg^−1 · min^−1

NC(=O)CC[C@@H]1NC(=O)[C@H](Cc2ccccc2)NC(=O)[C@H](Cc2ccc(O)cc2)NC(=O)[C@@H](N)CSSC[C@@H](C(=O)N2CCC[C@H]2C(=O)N[C@@H](CCCN=C(N)N)C(=O)NCC(N)=O)NC(=O)[C@H](CC(N)=O)NC1=O [AVP, 8-arginine vasopressin]
clearance of the hormone from the blood by hemodialysis ([1]; HD instituted during constant AVP infusion): does not clear the hormone from the blood | plasma concentration of AVP at 2 h ([1]; constant infusion dose 0.15, control period): 25.7 | plasma concentration of AVP at 2 h ([1]; constant infusion dose 0.15, hemodialysis period): 28.9 | plasma concentration of AVP at 2 h ([1]; constant infusion dose 0.3, control period): 47.4 | plasma concentration of AVP at 2 h ([1]; constant infusion dose 0.3, hemodialysis period): 51.2 | plasma concentration of AVP at 2 h ([1]; constant infusion dose 0.6, control period): 100.0 | plasma concentration of AVP at 2 h ([1]; constant infusion dose 0.6, hemodialysis period): 104.6 | plasma level of AVP ([1]; infusion of 0.3 mU/kg/min, hemodialysis patients and control subjects): ~40 pg/m | effect of renal failure on clearance of plasma vasopressin [2]: does not alter the clearance | level at 1 h [3, 4]: 0.025 ± 0.006 ng/mL | level at 2 h [3, 4]: 0.029 ± 0.006 ng/mL | level at 0 h [3, 4]: 0.026 ± 0.004 ng/mL | level at 1 h [3, 5]: 0.054 ± 0.006 ng/mL | level at 2 h [3, 5]: 0.052 ± 0.009 ng/mL | level at 0 h [3, 5]: 0.047 ± 0.006 ng/mL | change of plasma concentrations of vasopressin by hemodialysis ([3]; steady state during constant infusion, hemodialysis initiated after >1 hour): not significantly changed
